# Laboratory results taken from patent US6790833B2, “Antifungal and antibacterial agents” (priority 2001, dated 2004).
# “Also recorded” adds a separate entry of the source.
# What was measured:
# fungi or bacteria = assay: Antifungal and antibacterial activity assays, overall statements; format: cell-based
# Procedure: (§1) Two fold serial dilutions of each peptide (ranging from 100 μM down to 1.5625 μM) in 20 μl of 10 mM Na phosphate buffer, pH 7.4, were incubated with an equal volume of bacterial or fungal strain (10^5 cells/ml) for 1.5 hours at 30° C. for S. cerevisiae and 37° C. for the rest of strains tested. At the end of incubation, the samples were diluted 20 fold and aliquots (˜120 cells) of each sample were plated on appropriate plates depending on the strain tested, as indicated above. Plates were incubated for 1 to 7 days aerobically or anaerobically, depending on the strain tested. Colonies were then counted, and the loss of cell viability was plotted as a function of protein concentration. Fungicidal activities against C. albicans and C. neoformans were also tested at 4° C.
# (§2) A time course study of peptide-induced killing was statistically analyzed by student t-test.
# C. neoformans [1] = assay: Antifungal (cidal) activity assay, loss of cell viability; format: cell-based, Cryptococcus neoformans; conditions: for ED50 (95% confidence limit) C. neoformans: Example 2, 1.5 hours, 37°, 10 mM Na phosphate buffer pH 7.4; for Loss of Cell viability (%): 6.25 μM
# From the text: (§3) Azole-sensitive (# 2-76) and azole-resistant (# 12-99) clinical isolates of C. albicans were a gift from Dr. Theodore C. White (University of Washington and Seattle Biomedical Research Institute, Seattle, Wash.). An azole-sensitive Candida glabrata (C. glabrata) was purchased from ATCC (ATCC 90030) and its azole-resistant counterpart, clinical isolate 65C, was obtained from Dr. John E. Bennett (National Institute of Allergy and Infectious Diseases, Bethesda, Md.). A clinical isolate of Candida krusei (C. krusei) was obtained from the Erie County Medical Center, Buffalo, N.Y. Amphotericin B-sensitive (CN2) and -resistant (CN2843) C. neoformans strains were obtained from AIDS patients with cryptococcal meningitis and were generously provided by Dr. John H. Rex (University of Texas Medical School, Houston, Tex.). Additionally, Saccharomyces cerevisiae (S. serevisiae) strain S288C was provided by Dr. D. Kosman, Department of Biochemistry, University at Buffalo, the State University of New York. All fungi were streaked and grown on SAB plates at 37° C., except S. cerevisiae, which was grown at 30° C. until large colonies were formed. One colony was then picked and resuspended in Na phosphate buffer (pH 7.4) and the concentration was adjusted to 1×10^5 cell/ml for the antifungal assay described below.
# as §1
# (§4) To test the effect of inhibitors of oxidative phosphorylation in the mitochondrial system on peptide-induced killing, C. albicans and C. neoformans (CN2) were preincubated with either 20 mM sodium azide or 300 μM CCCP for 2 hours at 37° C. The cidal assays were then carried out as described above. In separate control experiments, both inhibitors were evaluated for their toxicity toward C. albicans and C. neoformans (CN2) in the absence of peptides. At these concentrations, neither compound had any cidal effect. In addition, the fungicidal activities of MUC7 20-mer and Hsn-5 (25 μM) in 10 mM Na phosphate buffer (pH 7.4) in the presence of varying concentrations (1-50 mM) of Ca^++ (as CaCl2) or Mg^++ (as MgCl2) were examined.
# as §2
# (§5) Two fold serial dilutions of each peptide (ranging from 50 or 25 μM down to 1.5625 μM) in 20 μl of 10 mM Na phosphate buffer, pH 7.4, were incubated with an equal volume of fungal strain (10^5 cells/ml, also in Na phosphate buffer) for 1.5 hours at 37°. At the end of incubation, the samples were diluted 20 fold with the same buffer and aliquots (˜150 cells) of each sample were plated on SAB plates. Plates were incubated for 1 to 2 days for C. albicans and C. neoformans, respectively. Colonies were then counted, and the loss of cell viability was plotted as a function of protein concentration. The statistical analysis was as described in Example 1.
# C. albicans [2] = assay: as above; format: cell-based, Candida albicans; conditions: for ED50 (95% confidence limit) C. albicans: Example 2, 1.5 hours, 37°, 10 mM Na phosphate buffer pH 7.4; for Loss of Cell viability (%): 6.25 μM
# From the text: as §3, §1, §4, §2, §5
# C. albicans [3] = assay: Fluorescence light and confocal microscopy, internalization of FITC-labeled peptide; format: cell-based, Candida albicans; conditions: 50 μM, 45-90 minutes, 37° C.
# Procedure: (§6) The internalization of MUC7 20-mer into fungi was visualized in C. albicans and C. neoformans. Untreated cells (10^7) or cells preincubated with 20 mM sodium azide, 300 μM CCCP, 50 mM Ca^++ or 50 mM Mg^++ were then treated with 50 μM FITC-MUC7 20-mer for 45-90 minutes in 100 μl of Na phosphate buffer (10 mM, pH 7.4) at 37° C. Untreated cells were also incubated with 50 μM FITC-MUC7 20-mer at 4° C. The cells were then extensively washed with phosphate buffer, concentrated and resuspended in the same buffer. The cell suspension was then quickly mounted on slides with sealed cover-slips. Fluorescence light micrographs were made on a Nikon Optiphot microscope, with a fluorescent light source.
# (§7) The intracellular localization of FITC-MUC7-20mer was investigated in a double-labeling experiment using MitoTracker Red mitochondrial probe. C. albicans and C. neoformans were incubated with 500 nM MitoTracker Red in 10 mM Na phosphate buffer, pH 7.4 for 15 minutes at room temperature, washed three times with the same buffer, and subsequently incubated with 50 μM FITC-MUC7 20-mer. After 20 min. incubation at 37° C., the suspension was washed with phosphate buffer extensively. The cell suspension was then quickly mounted on slides with sealed cover-slips. Confocal fluorescence microscopy was performed with a BioRad MRC-1024 confocal microscope system with Krypton-argon laser which outputs 488, 568 and 647 nm excitation line and Nikon upright epifluorescence microscope (Zeiss 60× oil immersion planApp objective with 1.4 numerical aperture).
# (§8) The internalization of MUC7 20-mer and 12-mer-3 into fungi was visualized using FITC labeled peptides. Cells (10^7) were treated with 50 μM FITC-MUC7 20-mer or 12-mer-3 for 45-90 mins in 100 μl of Na phosphate buffer (10 mM, pH 7.4) at 37° C. The cells were then processed and visualized as described in Example 1.
# C. neoformans [4] = assay: as above; format: cell-based, Cryptococcus neoformans; conditions: 50 μM, 45-90 minutes, 37° C.
# Procedure: as §6, §7, §8
# A. actinomycetemcomitans = assay: Antibacterial (cidal) activity assay, loss of cell viability; format: cell-based, Actinobacillus actinomycetemcomitans
# Procedure: (§9) The following bacterial strains were tested: Streptococcus mutans (S. mutans) GS-5, Streptococcus gordonii (S. gordonii) Challis, Escherichia coli (E. coli) HB101, Pseudomonas aeruginosa (P. aeruginosa) ATCC 17648, Actinobacillus actinomycetemcomitans (A. actinomycetemcomitans) NCTC9710, Porphyromonas gingivalis (P. gingivalis) 381 and W50. S. mutans, S. gordonii, A. actinomycetemcomitans and P. aeruginosa were grown anaerobically by candle jar extinction at 37° C. on TSB plates. P. gingivalis was grown in anaerobic chamber at 37° C. on sheep blood agar plates. E. coli was grown aerobically at 37° C. on LB agar plates.
# as §1, with “Plates were incubated for 1 to 7 days aerobically or anaerobically, depending on the strain tested.” left out, “Fungicidal activities against C. albicans and C. neoformans were also tested at 4° C.” left out
# as §2
# S. mutans = assay: as above; format: cell-based; conditions: Streptococcus mutans, read-out: ED50 (95% confident limit)
# Procedure: as §9
# as §1, with “Plates were incubated for 1 to 7 days aerobically or anaerobically, depending on the strain tested.” left out, “Fungicidal activities against C. albicans and C. neoformans were also tested at 4° C.” left out
# as §2
molecule,measurement,setting,value
"12-mer (amino acids 40-51 of MUC7D1), SEQ ID NO.6: RKSYKCLHKRCR (OTHER INFORMATION: 12-mer; Amino acids 40-51 of the MUC7D1 peptide.) [Peptide 12-mer]",cidal activity against fungi or bacteria,fungi or bacteria,active against a variety of fungi and bacteria
"12-mer with arginine and lysine at position 40 and 41 replaced by alanine, SEQ ID NO.11: AASYKCLHKRCR (OTHER INFORMATION: 12-mer-2 variant of the 12-mer) [Peptide 12-mer-2]",ED50 (95% confidence limit) C. neoformans,C. neoformans [1],comparable to that of unaltered 12-mer
"12-mer with both cysteines replaced by alanine, SEQ ID NO.13: RKSYKALHKRAR (OTHER INFORMATION: 12-mer-4 variant of the 12-mer) [Peptide 12-mer-4]",ED50 (95% confidence limit) C. neoformans,C. neoformans [1],did not alter 12-mer antifungal activity
same,ED50 (95% confidence limit) C. albicans,C. albicans [2],did not alter 12-mer antifungal activity
"12-mer with positions 40, 41, 44, 48, 49 and 51 replaced by alanine, SEQ ID NO.12: AASYACLHAACA (OTHER INFORMATION: 12-mer-3 variant of the 12-mer) [Peptide 12-mer-3]",ED50 (95% confidence limit) C. neoformans,C. neoformans [1],cidal activity was diminished; also recorded: No activity
same,ED50 (95% confidence limit) C. albicans,C. albicans [2],no anticandidal activity
same,internalization of FITC-labeled peptide,C. albicans [3],No internalization
same,internalization of FITC-labeled peptide,C. neoformans [4],No internalization
"C[C@H](NC(=O)[C@H](Cc1cnc[nH]1)NC(=O)[C@H](CO)NC(=O)[C@@H](N)CC(=O)O)C(=O)N[C@@H](CCCCN)C(=O)N[C@@H](CCCNC(=N)N)C(=O)N[C@@H](Cc1cnc[nH]1)C(=O)N[C@@H](Cc1cnc[nH]1)C(=O)NCC(=O)N[C@@H](Cc1ccc(O)cc1)C(=O)N[C@@H](CCCCN)C(=O)N[C@@H](CCCNC(=N)N)C(=O)N[C@@H](CCCCN)C(=O)N[C@@H](Cc1ccccc1)C(=O)N[C@@H](Cc1cnc[nH]1)C(=O)N[C@@H](CCC(=O)O)C(=O)N[C@@H](CCCCN)C(=O)N[C@@H](Cc1cnc[nH]1)C(=O)N[C@@H](Cc1cnc[nH]1)C(=O)N[C@@H](CO)C(=O)N[C@@H](Cc1cnc[nH]1)C(=O)N[C@@H](CCCNC(=N)N)C(=O)NCC(=O)N[C@@H](Cc1ccc(O)cc1)C(=O)O [Hsn-5, reference compound]",loss of cell viability at the highest concentration tested,A. actinomycetemcomitans; 100 μM,24%
same,effect of pretreatment with CCCP or sodium azide on peptide-induced killing,"C. neoformans [1]; C. neoformans, 300 μM CCCP or 20 mM sodium azide, 2 hours",unable to do the same
same,activity at 4° C.,"C. neoformans [1]; C. neoformans, 4° C.",hardly affected
same,Loss of Cell viability (%),"C. neoformans [1]; C. neoformans, 5 min",9 ± 2%
same,Loss of Cell viability (%),"C. neoformans [1]; C. neoformans, 15 min",43 + 3%
same,Loss of Cell viability (%),"C. neoformans [1]; C. neoformans, 30 min",59 + 5%
same,Loss of Cell viability (%),"C. neoformans [1]; C. neoformans, 45 min",64 + 1%
same,Loss of Cell viability (%),"C. neoformans [1]; C. neoformans, 90 min",71 + 7%
same,Peptide-induced killing without the cations,"C. neoformans [1]; C. neoformans, Na phosphate buffer, 25 μM",100%
same,effect of pretreatment with CCCP or sodium azide on peptide-induced killing,"C. albicans [2]; C. albicans, 300 μM CCCP or 20 mM sodium azide, 2 hours",rescued Candida cells from killing
same,potency at 4° C.,"C. albicans [2]; C. albicans, 4° C.",limited potency
same,Loss of Cell viability (%),"C. albicans [2]; C. albicans, 5 min",0 + 0%
same,Loss of Cell viability (%),"C. albicans [2]; C. albicans, 15 min",1 + 3%
same,Loss of Cell viability (%),"C. albicans [2]; C. albicans, 30 min",11 + 4%
same,Loss of Cell viability (%),"C. albicans [2]; C. albicans, 45 min",34 + 2%
same,Loss of Cell viability (%),"C. albicans [2]; C. albicans, 90 min",42 + 3%
same,Peptide-induced killing without the cations,"C. albicans [2]; C. albicans, Na phosphate buffer, 25 μM",100%
same,concentration for killing bacteria relative to killing fungi,fungi or bacteria,more than 10 fold
[H]/N=C(/N)N[C@H]1[C@H](O)[C@@H](O)[C@H](O[C@@H]2O[C@@H](C)[C@](O)(C=O)[C@H]2O[C@@H]2O[C@@H](CO)[C@H](O)[C@@H](O)[C@@H]2NC)[C@@H](N/C(N)=N\[H])[C@@H]1O [streptomycin],EC50,"A. actinomycetemcomitans; Aggregatibacter actinomycetemcomitans, read-out: ED50 (95% confident limit)",2.7 µM
same,EC50,S. mutans,64 µM
"from the N-terminus of the 20-mer (amino acids 32-39), SEQ ID NO.10: LAHQKPFI (OTHER INFORMATION: 8-mer-N; Amino acids 32-3 9 of the MUC7D1 peptide.) [Peptide 8-mer-N]",ED50 (95% confidence limit) C. neoformans,C. neoformans [1],No activity
same,ED50 (95% confidence limit) C. neoformans,C. neoformans [1]; listed as N-terminal 8-mer,no antifungal activity
same,ED50 (95% confidence limit) C. albicans,C. albicans [2],No activity
same,ED50 (95% confidence limit) C. albicans,C. albicans [2]; listed as N-terminal 8-mer,no antifungal activity
same,antibacterial activity,fungi or bacteria,did not exhibit antibacterial activity
